# Assay results published in patent US8461328B2, “Tricyclic heterocyclic compounds, compositions and methods of use thereof” (Genentech, Inc., priority 2010, dated 2013).
# What was measured:
# Assay type in all cases: biochemical
# [1] = molecular target: T1, JAK1 (Homo sapiens, UniProt P23458); assay: JAK1 inhibition (Table 4); conditions: read-out: JAK1 Ki
# T1 construct: made in house; host or cells: SF9 insect cells (baculovirus)
# [2] = molecular target: T2, JAK2 (Homo sapiens, UniProt O60674); assay: JAK2 inhibition (Table 4); conditions: read-out: JAK2 Ki
# T2 construct: made in house; host or cells: SF9 insect cells (baculovirus)
# [3] = molecular target: T3, JAK3 (Homo sapiens, UniProt P52333); assay: JAK3 inhibition (Table 4); conditions: read-out: JAK3 Ki
# T3 construct: made in house; host or cells: SF9 insect cells (baculovirus)
# [4] = molecular target: T4, TYK2 (Homo sapiens, UniProt P29597); assay: TYK2 inhibition (Table 4)
# T4 construct: made in house; host or cells: SF9 insect cells (baculovirus)
# T4 sequence (P29597 873-1187): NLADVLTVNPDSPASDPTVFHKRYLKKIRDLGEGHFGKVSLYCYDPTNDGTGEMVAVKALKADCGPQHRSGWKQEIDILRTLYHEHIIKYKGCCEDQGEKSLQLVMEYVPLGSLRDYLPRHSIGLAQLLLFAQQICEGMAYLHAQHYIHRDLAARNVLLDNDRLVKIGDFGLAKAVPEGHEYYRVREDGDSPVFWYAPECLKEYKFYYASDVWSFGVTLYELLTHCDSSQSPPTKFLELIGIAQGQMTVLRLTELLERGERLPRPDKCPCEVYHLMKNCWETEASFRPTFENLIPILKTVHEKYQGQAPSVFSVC
# T1 sequence (P23458 852-1154): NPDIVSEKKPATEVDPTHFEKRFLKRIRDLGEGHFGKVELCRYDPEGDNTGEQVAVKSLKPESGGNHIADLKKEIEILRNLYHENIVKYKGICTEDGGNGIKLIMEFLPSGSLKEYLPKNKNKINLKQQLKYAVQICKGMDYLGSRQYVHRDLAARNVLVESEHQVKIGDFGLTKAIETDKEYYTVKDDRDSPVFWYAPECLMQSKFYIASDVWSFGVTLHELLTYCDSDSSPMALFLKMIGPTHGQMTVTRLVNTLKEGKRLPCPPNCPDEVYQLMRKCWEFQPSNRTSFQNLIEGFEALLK
# T2 sequence (O60674 812-1132): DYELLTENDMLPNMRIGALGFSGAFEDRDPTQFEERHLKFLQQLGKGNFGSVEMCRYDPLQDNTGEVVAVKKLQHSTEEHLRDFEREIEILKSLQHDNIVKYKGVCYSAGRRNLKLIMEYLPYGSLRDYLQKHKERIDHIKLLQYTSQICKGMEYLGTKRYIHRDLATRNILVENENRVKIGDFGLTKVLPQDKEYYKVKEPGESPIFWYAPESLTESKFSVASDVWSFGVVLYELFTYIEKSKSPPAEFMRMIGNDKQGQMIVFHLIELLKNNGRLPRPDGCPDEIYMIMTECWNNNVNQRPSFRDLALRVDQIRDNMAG
# T3 sequence (P52333 783-1124): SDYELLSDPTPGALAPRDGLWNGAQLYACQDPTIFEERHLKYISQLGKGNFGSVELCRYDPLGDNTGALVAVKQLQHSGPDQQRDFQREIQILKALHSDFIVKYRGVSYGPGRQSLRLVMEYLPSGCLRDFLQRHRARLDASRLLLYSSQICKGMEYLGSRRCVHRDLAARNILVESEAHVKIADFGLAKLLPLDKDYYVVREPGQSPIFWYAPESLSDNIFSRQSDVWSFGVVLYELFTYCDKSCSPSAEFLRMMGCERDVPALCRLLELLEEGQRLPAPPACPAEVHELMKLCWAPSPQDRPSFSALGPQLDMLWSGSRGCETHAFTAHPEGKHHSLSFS
SMILES,Ki [1] [nM],Ki [2] [nM],Ki [3] [nM],Ki [4] [nM]
"O=C(NCCc1nc2cnc3[nH]ccc3c2n1[C@@H]1CCCOC1)C1CC1 [Example 863, (R)-Cyclopropanecarboxylic acid {2-[1-(tetrahydro-pyran-3-yl)-1,6-dihydro-1,3,5,6-tetraaza-as-indacen-2-yl]-ethyl}-amide]",67.2,828,1240,2020
"CCC(=O)N1CCC[C@@H](n2c([C@@H](C)O)nc3cnc4[nH]ccc4c32)C1 [Example 795, 1-{(R)-3-[2-((R)-1-Hydroxy-ethyl)-6H-1,3,5,6-tetraaza-as-indacen-1-yl]-piperidin-1-yl}-propan-1-one]",221,876,1370,698
"CN([C@H]1CC[C@H](n2cnc3cnc4[nH]ccc4c32)CC1)S(=O)(=O)C1CC1 [Example 341, Cyclopropanesulfonic acid methyl-[4-(6H-1,3,5,6-tetraaza-as-indacen1-yl)-cyclohexyl]-amide]",10.2,7.47,169,106
"CC(=O)NCc1nc2cnc3[nH]ccc3c2n1C1CCN(CC(F)(F)F)CC1 [Example 920, N-{1-[1-(2,2,2-Trifluoro-ethyl)-piperidin-4-yl]-1,6-dihydro-1,3,5,6-tetraaza-as-indacen-2-ylmethyl}-acetamide]",13,93,86.5,183
"CC(C)(C)C(=O)NCCc1nc2cnc3[nH]ccc3c2n1C1CCN(CCC#N)CC1 [Example 374, N-(2-{l-[l-(2-Cyano-ethyl)-piperidin-4-yl]-1,6-dihydro-1,3,5,6-tetraaza-as-indacen-2-yl}-ethyl)-2,2-dimethyl-propionamide]",4.69,89.4,100,350
"OCc1nc2cnc3[nH]ccc3c2n1C1CC2CCC1O2 (single isomer, unassigned) [Example 852, endo-[1-(7-Oxa-bicyclo[2.2.1]hept-2-yl)-1,6-dihydro-1,3,5,6-tetraaza-as-indacen-2-yl]-methanol]",29.1,140,117,89.3
"C[C@@H](O)c1nc2cnc3[nH]ccc3c2n1C1CCN(Cc2ncccc2F)CC1 [Example 682, (R)-1-{1-[1-(3-Fluoro-pyridin-2-ylmethyl)-piperidin-4-yl]-1,6-dihydro-1,2,3,5,6-tetraaza-as-indacen-2-yl}-ethanol]",8.63,103,31,387
"CC(C)(C)NCCOCc1nc2cnc3[nH]ccc3c2n1C1CCN(CCC#N)CC1 [Example 833, 3-{4-[2-(2-tert-Butylamino-ethoxymethyl)-6H-1,3,5,6-tetraaza-as-indacen-1-yl]-piperidin-1-yl}-propionitrile]",18.1,14,101,125
"O=C(Cc1nc2cnc3[nH]ccc3c2n1C1CCCOC1)N1CCC1 (racemic) [Example 967, 1-Azetidin-1-yl-2-[1-(tetrahydro-pyran-3-yl)-1,6-dihydro-1,3,5,6-tetraaza-as-indacen-2-yl]-ethanone]",131,776,484,1060
"CN(Cc1nc2cnc3[nH]ccc3c2n1C1CCN(Cc2ccccc2)CC1)S(C)(=O)=O [Example 203, N-[1-(1-Benzyl-piperidin-4-yl)-1,6-dihydro-1,2,3,5,6-tetraaza-as-indacen-2-ylmethyl]-N-methyl-methanesulfonamide]",19.6,145,104,258
"COC[C@H]1CC[C@H](n2c([C@@H](C)O)nc3cnc4[nH]ccc4c32)CC1 [Example 637, Trans (R)-1-[1-(4-methoxymethyl-cyclohexyl)-1,6-dihydro-1,2,3,5,6-tetraaza-as-indacen-2-yl]-ethanol]",1.89,35.6,37,7.42
"O=C(C1CCC1)N1CCC[C@@H](n2cnc3cnc4[nH]ccc4c32)C1 [Example 315, Cyclobutyl-[(R)-3-(6H-1,3,5,6-tetraaza-as-indacen-1-yl)-piperidin1-yl]-methanone]",5.7,6.28,41.3,29.2
"OCc1nc2cnc3[nH]ccc3c2n1C1CCCOC1 (single isomer, unassigned) [Example 464, [1-(Tetrahydro-pyran-3-yl)-1,6-dihydro-1,3,5,6-tetraaza-as-indacen-2-yl]-methanol]",56.9,224,412,187
"CC(C)(C)COCc1nc2cnc3[nH]ccc3c2n1C1CCN(CCC#N)CC1 [Example 683, 3-{4-[2-(2,2-Dimethyl-propoxymethyl)-6H-1,2,3,5,6-tetraaza-as-indacen-1-yl]-piperidin-1-yl}-propionitrile]",162,259,308,1750
